Values belong to the compound of their own block, whether it stands above or below them.
Tests used:
IL-1β [1] = assay: serum IL-1β protein by ELISA, DSS acute UC mice; type: in vivo; details: 10 mg/kg
Procedure: (§1) Except for the normal group, all other groups of mice were allowed to freely drink a 3% DSS solution which was freshly prepared and replaced the next day (wherein the 3% DSS solution was prepared by weighing 3 g of a DSS powder (from MP Biomedicals, USA with a molecular weight of 36,000 to 50,000) and fully dissolving it in 100 mL of the drinking water for the mice); whereas the normal group was given blank drinking water; the control group mice drank water normally for 7 days, while the DSS group mice drank the 3% DSS solution freely for 7 days and were administrated for 6 days from the second day DSS was given. The mice were administered by gavage once a day with a volume of 10 mL/kg, wherein the normal control group and DSS group were gavaged with a solvent of 0.5% CMC-Na (wherein a 0.5% CMC-Na solution is at a concentration of 0.5 g/100 mL, the same below), while the other groups were separately gavaged with drugs dissolved in 0.5% CMC-Na.

IL-6 [2] = assay: serum IL-6 protein by ELISA, DSS acute UC mice; type: in vivo; details: 10 mg/kg
Procedure: as §1
(§2) To investigate the effects of compounds (R)-STU104, (S)-STU104, and (±)-STU104 on the secretion of such inflammatory factors as TNF-α, IL-1β, IL-6, and IL-23 by mice of the DSS induced acute ulcerative colitis model in C57 mice, we isolated serum after blood acquisition and detected the contents of such inflammatory factors as TNF-α, IL-1β, IL-6, and IL-23 in the serum of mice using ELISA.

IL-1β [3] = assay: colon tissue IL-1β mRNA by qPCR, DSS acute UC mice; type: in vivo; details: 10 mg/kg
Procedure: as §1
(§3) After dissection, a segment of the colon was taken from the same part of each mouse, total RNAs were extracted from tissues, and mRNA expressions of such inflammatory factors as TNF-α, IL-1β, IL-6, and IL-23 in colon tissues of the mice were detected through qPCR.

IL-23 [4] = assay: colon tissue IL-23 mRNA by qPCR, DSS acute UC mice; type: in vivo; details: 10 mg/kg
Procedure: as §1, §3

TNF-α [5] = assay: colon tissue TNF-α mRNA by qPCR, DSS acute UC mice; type: in vivo; details: 10 mg/kg
Procedure: as §1, §3

TNF-α [6] = assay: serum TNF-α protein by ELISA, DSS acute UC mice; type: in vivo; details: 10 mg/kg
Procedure: as §1, §2

IL-6 [7] = assay: colon tissue IL-6 mRNA by qPCR, DSS acute UC mice; type: in vivo; details: 10 mg/kg
Procedure: as §1, §3

TNF-α [8] = assay: release of the inflammatory factor TNF-α by LPS induced macrophages (RAW264.7), RT-PCR; type: cell-based; details: Mus musculus, RAW264.7, LPS 1 μg/ml, 24 hours, read-out: IC50 with respect to the release of the inflammatory factor TNF-α
Procedure: LPS (1 μg/ml) and different concentrations of (±)-STU104 or (R)-STU104 (0.1 to 50 μM) were added respectively after the cells grew to a fused state, and incubated together at 37° C. under 5% CO2 for 24 hours. A blank control group was established, and RT-PCR was employed to detect the inhibition states of TNF-α in cells by these compounds.

IL-23 [9] = assay: serum IL-23 protein by ELISA, DSS acute UC mice; type: in vivo; details: 10 mg/kg
Procedure: as §1, §2

[10] = system: DSS induced acute ulcerative colitis model in C57 mice; assay: DSS induced acute ulcerative colitis in C57 mice (body weight, DAI, colon length, H&E pathology); type: in vivo; details: 10 mg/kg, gavage once a day; for DAI score inhibition ratio / body weight recovery rate: day 7
Procedure: as §1
The normal control group mice were vivacious with glossy fur, stable weight gain, and normal stools appearing elliptical or spindle shaped.
In order to further evaluate the disease development for each group of acute UC mice, we performed DAI scoring on the loose and bloody stools etc. for each mouse (see panel B1 in FIG. 3). […] As the experiment progressed, the disease became gradually worsened, with some animals experiencing severe bloody stools and significant emaciation.
(§4) After dissection, the colon of each mouse was taken and the length of the colon was measured separately.

[11] = system: Mnk1, MK2, and elF4E in the p38 signaling pathway; assay: western blotting of phosphorylation of p38 signaling pathway proteins in LPS induced RAW264.7 cells; type: cell-based; details: RAW264.7, 3.125, 6.25 and 12.5 μM, LPS 500 μg/L
Text: (§5) To further clarify the inhibitory mechanism of (R)-STU104 on TNF-α release, we detected the effects of (R)-STU104 on phosphorylation levels of proteins related to the p38 signaling pathway (see FIG. 2). The p38 inhibitor (SB203580) was used as a positive control, and western blotting was used to detect protein expression levels.

IL-6 [12] = assay: serum IL-6 protein by ELISA, IL-10 knockout chronic UC mice; type: in vivo
Procedure: (§6) Ten C57 mice (aged 10-12 weeks, around 20 g) with an identified genotype of Wildtype were taken as the normal control group. […] The mice were administered by gavage once a day with a volume of 10 mL/kg, wherein the normal control group and DSS group were gavaged with a solvent of 0.5% CMC-Na while the other groups were separately gavaged with drugs dissolved in 0.5% CMC-Na.
(§7) To investigate the effects of (R)-STU104 on the secretion of such inflammatory factors as TNF-α, IL-1β, IL-6, and IL-23 by spontaneous IBD mice due to IL-10 knockout, we isolated serum after blood acquisition and detected the contents of such inflammatory factors as TNF-α, IL-1β, IL-6, and IL-23 in the serum of mice using ELISA.

TNF-α [13] = assay: colon tissue TNF-α mRNA by qPCR, IL-10 knockout chronic UC mice; type: in vivo
Procedure: as §6, §3

IL-1β [14] = assay: serum IL-1β protein by ELISA, IL-10 knockout chronic UC mice; type: in vivo
Procedure: as §6, §7

IL-23 [15] = assay: colon tissue IL-23 mRNA by qPCR, IL-10 knockout chronic UC mice; type: in vivo
Procedure: as §6, §3

IL-6 [16] = assay: colon tissue IL-6 mRNA by qPCR, IL-10 knockout chronic UC mice; type: in vivo
Procedure: as §6, §3

IL-23 [17] = assay: serum IL-23 protein by ELISA, IL-10 knockout chronic UC mice; type: in vivo
Procedure: as §6, §7

IL-1β [18] = assay: colon tissue IL-1β mRNA by qPCR, IL-10 knockout chronic UC mice; type: in vivo
Procedure: as §6, §3

TAK1 = assay: western blotting of TAK1 phosphorylation (upstream kinase of MKK3); type: cell-based
Text: as §5

TNF-α [19] = assay: serum TNF-α protein by ELISA, IL-10 knockout chronic UC mice; type: in vivo
Procedure: as §6, §7

[20] = system: chronic ulcerative colitis model in IL-10 whole gene knockout mice; assay: chronic ulcerative colitis in IL-10 whole gene knockout mice (survival, body weight, colon length, H&E pathology); type: in vivo; details: for total mortality rate: gavage once a day
Procedure: as §6, §4

IC50 (TNF-α [8]): 1270 nM
Structure (SMILES): COc1ccc(C2CC(=O)c3cc(OC)cc(OC)c32)cc1 (racemic) [(±)-STU104]
inhibition ratio of IL-1β protein content in serum (IL-1β [1]): 68.6%
inhibition ratio of IL-6 protein content in serum (IL-6 [2]): 49.1%
inhibition ratio of IL-1β mRNA in colon tissues (IL-1β [3]): 67.5%
inhibition ratio of IL-23 mRNA in colon tissues (IL-23 [4]): 73.1%
inhibition ratio of TNF-α mRNA in colon tissues (TNF-α [5]): 55.4%
inhibition ratio of TNF-α protein content in serum (TNF-α [6]): 48.1%
inhibition ratio of IL-6 mRNA in colon tissues (IL-6 [7]): 56.1%
inhibition ratio of IL-23 protein content in serum (IL-23 [9]): 45.2%
colon length recovery rate (inhibition of colon shortening) [10]: 25.7%
recovery rate of colon pathological sections (H&E) [10]: 48.3%
DAI score inhibition ratio [10]: 8.3%
body weight recovery rate [10]: 20.0%

Structure (SMILES): COc1ccc([C@H]2CC(=O)c3cc(OC)cc(OC)c32)cc1 [(R)-STU104, 4,6-dimethoxy-3R-(4-methoxyphenyl)-2,3-dihydro-1H-indanone]
inhibition ratio of IL-1β protein content in serum (IL-1β [1]): 70.1%
phosphorylation of key proteins Mnk1, MK2, and elF4E in the p38 signaling pathway [11]: inhibiting, in a concentration dependent manner
inhibition ratio of IL-6 protein content in serum (IL-6 [2]): 71.5%
inhibition ratio of IL-1β mRNA in colon tissues (IL-1β [3]): 68.3%
inhibition ratio of IL-23 mRNA in colon tissues (IL-23 [4]): 84.8%
inhibition ratio of IL-6 protein content in serum (IL-6 [12]; high dose (10 mg/kg)): 57.6%
inhibition ratio of IL-6 protein content in serum (IL-6 [12]; low dose (1 mg/kg)): 34.4%
inhibition ratio of IL-6 protein content in serum (IL-6 [12]; medium dose (3 mg/kg)): 44.5%
inhibition ratio of TNF-α mRNA in colon tissues (TNF-α [5]): 64.8%
inhibition ratio of TNF-α mRNA in colon tissues (TNF-α [13]; high dose (10 mg/kg)): 68.5%
inhibition ratio of TNF-α mRNA in colon tissues (TNF-α [13]; low dose (1 mg/kg)): 24.7%
inhibition ratio of TNF-α mRNA in colon tissues (TNF-α [13]; medium dose (3 mg/kg)): 69.5%
inhibition ratio of IL-1β protein content in serum (IL-1β [14]; high dose (10 mg/kg)): 51.8%
inhibition ratio of IL-1β protein content in serum (IL-1β [14]; low dose (1 mg/kg)): 40.1%
inhibition ratio of IL-1β protein content in serum (IL-1β [14]; medium dose (3 mg/kg)): 50.0%
inhibition ratio of TNF-α protein content in serum (TNF-α [6]): 55.4%
inhibition ratio of IL-6 mRNA in colon tissues (IL-6 [7]): 65.0%
IC50 (TNF-α [8]): 580 nM
inhibition ratio of IL-23 mRNA in colon tissues (IL-23 [15]; high dose (10 mg/kg)): 58.2%
inhibition ratio of IL-23 mRNA in colon tissues (IL-23 [15]; low dose (1 mg/kg)): 31.0%
inhibition ratio of IL-23 mRNA in colon tissues (IL-23 [15]; medium dose (3 mg/kg)): 51.7%
inhibition ratio of IL-6 mRNA in colon tissues (IL-6 [16]; high dose (10 mg/kg)): 48.6%
inhibition ratio of IL-6 mRNA in colon tissues (IL-6 [16]; low dose (1 mg/kg)): 26.3%
inhibition ratio of IL-6 mRNA in colon tissues (IL-6 [16]; medium dose (3 mg/kg)): 37.1%
inhibition ratio of IL-23 protein content in serum (IL-23 [9]): 56.7%
colon length recovery rate (inhibition of colon shortening) [10]: 34.6%
recovery rate of colon pathological sections (H&E) [10]: 65.6%
DAI score inhibition ratio [10]: 29.3%
body weight recovery rate [10]: 22.4%
inhibition ratio of IL-23 protein content in serum (IL-23 [17]; high dose (10 mg/kg)): 64.4%
inhibition ratio of IL-23 protein content in serum (IL-23 [17]; low dose (1 mg/kg)): 39.6%
inhibition ratio of IL-23 protein content in serum (IL-23 [17]; medium dose (3 mg/kg)): 58.2%
inhibition ratio of IL-1β mRNA in colon tissues (IL-1β [18]; high dose (10 mg/kg)): 43.8%
inhibition ratio of IL-1β mRNA in colon tissues (IL-1β [18]; low dose (1 mg/kg)): 22.8%
inhibition ratio of IL-1β mRNA in colon tissues (IL-1β [18]; medium dose (3 mg/kg)): 36.1%
phosphorylation of TAK1 (TAK1): no inhibition
inhibition ratio of TNF-α protein content in serum (TNF-α [19]; high dose (10 mg/kg)): 61.9%
inhibition ratio of TNF-α protein content in serum (TNF-α [19]; low dose (1 mg/kg)): 40.2%
inhibition ratio of TNF-α protein content in serum (TNF-α [19]; medium dose (3 mg/kg)): 60.3%
efficiency of weight gain (body weight recovery) ([20]; high-dose group (10 mg/kg)): 19.4%
inhibition ratio of colon shortening ([20]; high-dose group (10 mg/kg)): 41.2%
recovery rate of colon pathological sections (H&E) ([20]; high-dose group (10 mg/kg)): 56.7%
total mortality rate ([20]; high-dose group (10 mg/kg)): no deaths occurred
efficiency of weight gain (body weight recovery) ([20]; low-dose group (1 mg/kg)): 13.6%
inhibition ratio of colon shortening ([20]; low-dose group (1 mg/kg)): 17.7%
recovery rate of colon pathological sections (H&E) ([20]; low-dose group (1 mg/kg)): 33.0%
total mortality rate ([20]; low-dose group (1 mg/kg)): 20%
efficiency of weight gain (body weight recovery) ([20]; medium-dose group (3 mg/kg)): 14.8%
inhibition ratio of colon shortening ([20]; medium-dose group (3 mg/kg)): 29.4%
recovery rate of colon pathological sections (H&E) ([20]; medium-dose group (3 mg/kg)): 50.5%
total mortality rate ([20]; medium-dose group (3 mg/kg)): no deaths occurred
